Positions count from the first letter of the chain named. Like-named read-outs stand apart in the source and are kept apart here.
What was measured:
Assay type in all cases: cell-based
[1] = target: T1, NaChBac (voltage-gated sodium channel from Bacillus halodurans) (Halalkalibacterium halodurans, UniProt Q9KCR8)
T1 sequence (Q9KCR8 1-274): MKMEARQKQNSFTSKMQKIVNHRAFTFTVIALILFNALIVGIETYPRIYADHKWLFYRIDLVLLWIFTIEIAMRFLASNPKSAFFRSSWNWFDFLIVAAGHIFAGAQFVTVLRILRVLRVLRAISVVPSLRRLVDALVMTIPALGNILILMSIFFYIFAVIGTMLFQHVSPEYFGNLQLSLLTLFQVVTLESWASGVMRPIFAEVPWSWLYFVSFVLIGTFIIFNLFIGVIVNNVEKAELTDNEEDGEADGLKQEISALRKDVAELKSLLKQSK

[2] = target: T2, NaChBac (voltage-gated sodium channel from Bacillus halodurans) (Halalkalibacterium halodurans, UniProt Q9KCR8, T220A); test: patch clamp in HEK-293 cells, peak current concentration response
T2 sequence (Q9KCR8 1-274 T220A): T1 sequence (Q9KCR8 1-274) with T220A

[3] = target: T1, NaChBac (voltage-gated sodium channel from Bacillus halodurans); remark: listed apart in the source

Row | IC50 [3] | SMILES | IC50 [1] | IC50 [2]
1 | – | COc1ccccc1OCC(O)CN1CCN(CC(=O)Nc2c(C)cccc2C)CC1 (stereo not shown) [ranolazine] | ~60 µM | –
2 | – | CCN(CC)CC(=O)Nc1c(C)cccc1C [lidocaine] | ~260 µM | 765 ± 76.3 µM
3 | 650 µM | CCOC(=O)c1ccc(N)cc1 [benzocaine] | – | –

From paper PMC3362524 (The Journal of General Physiology, 2012)
